In US20190216767A1, “TOPICAL THERAPY FOR THE TREATMENT OF SKIN KERATOSES USING NANOPARTICLES OF TAXANES” (DFB SORIA, LLC, priority 2017, published 2019):
Like-named read-outs stand apart in the source and are kept apart here.

Columns and labels:
[1] = methanol/water 15/85 (v/v), 37° C., pH 7, 75 rpm, cited from earlier work
[2] = Specific surface area (SSA) by BET isotherm; format: physicochemical; settings: BET isotherm method, nanoparticle API lot
Source text: (§1) Taxane nanoparticles produced by various supercritical carbon dioxide particle size reduction methods can have unique physical characteristics as compared to taxane nanoparticles produced by conventional particle size reduction methods using physical impacting or grinding, e.g., wet or dry milling, micronizing, disintegrating, comminuting, microfluidizing, or pulverizing. […] This bulk density range is generally lower than the bulk density of taxane particles produced by conventional means, and the SSA is generally higher than the SSA of taxane particles produced by conventional means. […] As used herein, the “specific surface area (SSA)” is the total surface area of the taxane nanoparticle per unit of taxane mass as measured by the Brunauer-Emmett-Teller (“BET”) isotherm by the following method: a known mass between 200 and 300 mg of the analyte is added to a 30 mL sample tube. […] The automated test is then carried out using the BETWIN® software package and the surface area of each sample is subsequently calculated. The bulk density measurement can be conducted by pouring the taxane nanoparticles into a graduated cylinder without tapping at room temperature, measuring the mass and volume, and calculating the bulk density.

[3] = Particle size of paclitaxel nanoparticles lots (ACCUSIZER 780); format: physicochemical; settings: nanoparticle API lot
Protocol: Max. Concentration: 9000 particles/mL, No. containers: 1, Sensor Range: Summation, Lower Detection Limit: 0.5 μm, Flow Rate: 30 mL/min, No. Analysis pulls: 4, Time between pulls: 1 sec, Pull volume: 10 mL, Tare Volume: 1 mL, Prime volume: 1 mL, Include First Pull: Not Selected.
Vortexed for 5-10 minutes and sonicated in a water batch for 1 minute.
Filled a plastic bottle with filtered (0.22 μm) 0.1% w/w SDS solution and analyzed the Background.

[4] = Bulk density (not tapped); format: physicochemical; settings: nanoparticle API lot
Source text: as §1

[5] = Observation of paclitaxel nanoparticle crystal growth by light microscopy; format: physicochemical
Göttingen minipigs = assay: Dermal toxicity study (GLP, topical daily for 28 days); format: in vivo; settings: topical daily for 28 days, 0.3, 1.0 and 3%
Protocol: The GLP-compliant study was conducted in Göttingen minipigs to characterize the toxicity of the formulations applied topically to 10% body surface area daily for 28 days. […] Reversibility of findings was also evaluated following a 2-week recovery period. Parameters evaluated included clinical observations, mortality and moribundity checks, dermal scoring, body weight, food consumption, eye examinations, test site photographs, electrocardiology, clinical pathology, bioanalysis and toxicokinetic evaluation, organ weights, macroscopic pathology and histopathology. There were no formulation-related effects on survival, clinical signs, dermal irritation, body weights, body weight gains, food consumption, ophthalmic findings, or cardiology parameters.

[6] = Solubility of paclitaxel in various solvents (HPLC); format: physicochemical
Protocol: Step “d” was continued for each vial for a total of 48 hours.

[7] = listed as paclitaxel nanoparticles lot used in the formulas listed in Table 3
[8] = listed as paclitaxel nanoparticles lot used in the formulas listed in Tables 16-19
[9] = in Aluminum sulfate 0.1-0.2% in water, @ 7 days, RT
[10] = in Ammonium lauryl sulfate 2% in water, @ 3 days, RT
[11] = in Benzalkonium chloride (50%) 2% in water, @ 7 days & 21 days, RT
[12] = in CARBOPOL ULTREZ 10 (with Ammonium hydroxide as neutralizer) 0.5% in water, @ 8 days & 21 days, RT
[13] = in Castor Oil 100%, @ 24 hrs & 9 days, RT
[14] = in Dimethicone, 1000 cSt 100%, @ 24 hrs & 6 days, RT
[15] = in FOMBLIN HC04 100%, @ 4, 7 & 13 days, RT
[16] = in Hydroxyethyl cellulose 1% in water, @ 7 days, RT
[17] = in Hydroxypropyl methylcellulose 1% in water, @ 3 days, RT
[18] = in Lecithin 1% in water, @ 24 hrs, RT
[19] = in Light Mineral Oil NF 100%, @ 3 days, RT & 40 C.
[20] = in Magnesium nitrate 5% in water, @ 3 days, RT
[21] = in Mannitol 5% in water, @ 7 days, RT
[22] = in Mineral Oil USP (heavy) 100%, @ 3 days, RT & 40 C.
[23] = in PEG 400 10% in water, @ 22 days, RT & 60 C.
[24] = in Poloxamer 188 2% in water, @ 7 days, RT
[25] = in Poloxamer 407 2% in water, @ 5 & 7 days, RT
[26] = in Polyoxyl 40 Hydrogenated Castor Oil (KOLLIPHOR RH40) 1% in water, @ 6 days, RT
[27] = in Polysorbate 80 0.5% in Saline, @ 7 days, RT & 60 C.
[28] = in Polysorbate 80 0.5% in water, @ 22 days, RT & 60 C.
[29] = in Povidone 1% in water, @ 7 days & 21 days, RT
[30] = in Proline 3% in water, @ 7 days, RT
[31] = in Purified Water 100%, @ 5 days, RT & 60 C.
[32] = in ST-Cyclomethicone 5 NF 100%, @ 24 hrs & 13 days, RT
[33] = in Saline 0.9% NaCl in water, @ 7 days, RT & 60 C.
[34] = in Sodium lauryl sulfate 2% in water, @ 7 days, RT
[35] = in Sodium phosphate monobasic 0.75% in water, @ 7 days, RT
[36] = in Sorbitol 5% in water, @ 7 days, RT
[37] = in Vitamin E TPGS 0.5% in water, @ 6 days, RT
[38] = in Zinc acetate […] in water, @ 7 days, RT

CC(=O)O[C@@]12CO[C@@H]1C[C@H](O)[C@@]1(C)C(=O)[C@H](O)C3=C(C)[C@@H](OC(=O)[C@H](O)[C@@H](NC(=O)OC(C)(C)C)c4ccccc4)C[C@@](O)([C@@H](OC(=O)c4ccccc4)[C@H]21)C3(C)C [Docetaxel nanoparticles, docetaxel]
dissolution rate, % dissolved in 30 minutes ([1]; nanoparticles made by milling): 9% | dissolution rate, % dissolved in 30 minutes ([1]; nanoparticles made by the supercritical carbon dioxide method): 27%

CC(=O)O[C@H]1C(=O)[C@@]2(C)[C@H]([C@H](OC(=O)c3ccccc3)[C@]3(O)C[C@H](OC(=O)[C@H](O)[C@@H](NC(=O)c4ccccc4)c4ccccc4)C(C)=C1C3(C)C)[C@]1(OC(C)=O)CO[C@@H]1C[C@@H]2O [Paclitaxel nanoparticles lot used in formulas listed in Tabl] [listing 1 of 2 here]
specific surface area (SSA) [2, 7]: 41.24 m^2/g | Particle size (number-weighted differential distribution) Mean [3]: 0.861 μm | Particle size (number-weighted differential distribution) Median [3]: 0.710 μm | Particle size (number-weighted differential distribution) Mode [3]: 0.572 μm | bulk density (not-tapped) [4, 7]: 0.05 g/mL

CC(=O)O[C@H]1C(=O)[C@@]2(C)[C@H]([C@H](OC(=O)c3ccccc3)[C@]3(O)C[C@H](OC(=O)[C@H](O)[C@@H](NC(=O)c4ccccc4)c4ccccc4)C(C)=C1C3(C)C)[C@]1(OC(C)=O)CO[C@@H]1C[C@@H]2O [Paclitaxel nanoparticles lot used in formulas listed in Tabl] [listing 2 of 2 here]
specific surface area (SSA) [2, 8]: 26.72 m^2/g | Particle size (number-weighted differential distribution) Mean [3]: 0.83 μm | bulk density (not-tapped) [4, 8]: 0.09 g/mL

CC(=O)O[C@H]1C(=O)[C@@]2(C)[C@H]([C@H](OC(=O)c3ccccc3)[C@]3(O)C[C@H](OC(=O)[C@H](O)[C@@H](NC(=O)c4ccccc4)c4ccccc4)C(C)=C1C3(C)C)[C@]1(OC(C)=O)CO[C@@H]1C[C@@H]2O [Paclitaxel nanoparticles, paclitaxel]
Crystal size (visual observation by light microscopy) [5, 9]: > 5 μm | Needle shaped crystals observed? (visual observation by light microscopy) [5, 9]: Yes | Crystal size (visual observation by light microscopy) [5, 10]: > 5 μm | Needle shaped crystals observed? (visual observation by light microscopy) [5, 10]: Yes | Crystal size (visual observation by light microscopy) [5, 11]: < 5 μm | Needle shaped crystals observed? (visual observation by light microscopy) [5, 11]: No | Crystal size (visual observation by light microscopy) [5, 12]: < 5 μm | Needle shaped crystals observed? (visual observation by light microscopy) [5, 12]: No | Crystal size (visual observation by light microscopy) [5, 13]: < 5 μm | Needle shaped crystals observed? (visual observation by light microscopy) [5, 13]: No | Crystal size (visual observation by light microscopy) [5, 14]: < 5 μm | Needle shaped crystals observed? (visual observation by light microscopy) [5, 14]: No | Crystal size (visual observation by light microscopy) [5, 15]: < 5 μm | Needle shaped crystals observed? (visual observation by light microscopy) [5, 15]: No | Crystal size (visual observation by light microscopy) [5, 16]: > 5 μm | Needle shaped crystals observed? (visual observation by light microscopy) [5, 16]: Yes | Crystal size (visual observation by light microscopy) [5, 17]: > 5 μm | Needle shaped crystals observed? (visual observation by light microscopy) [5, 17]: Yes | Crystal size (visual observation by light microscopy) [5, 18]: > 10 μm | Needle shaped crystals observed? (visual observation by light microscopy) [5, 18]: Yes | Crystal size (visual observation by light microscopy) [5, 19]: < 5 μm | Needle shaped crystals observed? (visual observation by light microscopy) [5, 19]: No | Crystal size (visual observation by light microscopy) [5, 20]: > 5 μm | Needle shaped crystals observed? (visual observation by light microscopy) [5, 20]: Yes | Crystal size (visual observation by light microscopy) [5, 21]: > 5 μm | Needle shaped crystals observed? (visual observation by light microscopy) [5, 21]: Yes | Crystal size (visual observation by light microscopy) [5, 22]: < 5 μm | Needle shaped crystals observed? (visual observation by light microscopy) [5, 22]: No | Crystal size (visual observation by light microscopy) [5, 23]: > 5 μm | Needle shaped crystals observed? (visual observation by light microscopy) [5, 23]: Yes | Crystal size (visual observation by light microscopy) [5, 24]: > 5 μm | Needle shaped crystals observed? (visual observation by light microscopy) [5, 24]: Yes | Crystal size (visual observation by light microscopy) [5, 25]: < 5 μm | Needle shaped crystals observed? (visual observation by light microscopy) [5, 25]: No | Crystal size (visual observation by light microscopy) [5, 26]: < 5 μm | Needle shaped crystals observed? (visual observation by light microscopy) [5, 26]: Yes | Crystal size (visual observation by light microscopy) [5, 27]: > 5 μm | Needle shaped crystals observed? (visual observation by light microscopy) [5, 27]: Yes | Crystal size (visual observation by light microscopy) [5, 28]: < 5 μm | Needle shaped crystals observed? (visual observation by light microscopy) [5, 28]: Yes | Crystal size (visual observation by light microscopy) [5, 29]: < 5 μm | Needle shaped crystals observed? (visual observation by light microscopy) [5, 29]: Yes | Crystal size (visual observation by light microscopy) [5, 30]: > 5 μm | Needle shaped crystals observed? (visual observation by light microscopy) [5, 30]: Yes | Crystal size (visual observation by light microscopy) [5, 31]: > 5 μm | Needle shaped crystals observed? (visual observation by light microscopy) [5, 31]: Yes | Crystal size (visual observation by light microscopy) [5, 32]: < 5 μm | Needle shaped crystals observed? (visual observation by light microscopy) [5, 32]: No | Crystal size (visual observation by light microscopy) [5, 33]: > 10 μm | Needle shaped crystals observed? (visual observation by light microscopy) [5, 33]: Yes | Crystal size (visual observation by light microscopy) [5, 34]: > 5 μm | Needle shaped crystals observed? (visual observation by light microscopy) [5, 34]: Yes | Crystal size (visual observation by light microscopy) [5, 35]: > 5 μm | Needle shaped crystals observed? (visual observation by light microscopy) [5, 35]: Yes | Crystal size (visual observation by light microscopy) [5, 36]: > 5 μm | Needle shaped crystals observed? (visual observation by light microscopy) [5, 36]: Yes | Crystal size (visual observation by light microscopy) [5, 37]: < 5 μm | Needle shaped crystals observed? (visual observation by light microscopy) [5, 37]: Yes | Crystal size (visual observation by light microscopy) [5, 38]: > 5 μm | Needle shaped crystals observed? (visual observation by light microscopy) [5, 38]: Yes | crystal growth of paclitaxel nanoparticles ([5]; in any of the hydrophobic carriers): did not grow | crystal growth of paclitaxel nanoparticles ([5]; in aqueous solutions of benzalkonium chloride, CARBOPOL ULTREZ 10, or poloxamer 407): did not grow | effect of the presence of the paclitaxel nanoparticles in the formulations on dermal irritation (Göttingen minipigs): negligible effect

CC(=O)O[C@H]1C(=O)[C@@]2(C)[C@H]([C@H](OC(=O)c3ccccc3)[C@]3(O)C[C@H](OC(=O)[C@H](O)[C@@H](NC(=O)c4ccccc4)c4ccccc4)C(C)=C1C3(C)C)[C@]1(OC(C)=O)CO[C@@H]1C[C@@H]2O [Paclitaxel, paclitaxel]
Paclitaxel Solubility at RT ([6]; in Benzyl Alcohol, NF): 17.02% w/w | Paclitaxel Solubility at RT ([6]; in Diethylene Glycol Monoethyl Ether, NF (TRANSCUTOL P)): 33.10% w/w | Paclitaxel Solubility at RT ([6]; in Diisopropyl Adipate (CERAPHYL 230)): 3.51% w/w | Paclitaxel Solubility at RT ([6]; in Dimethyl Isosorbide): 38.22% w/w | Paclitaxel Solubility at RT ([6]; in Hexylene Glycol): 4.07% w/w | Paclitaxel Solubility at RT ([6]; in Isopropyl Myristate, NF): 0.048% w/w | Paclitaxel Solubility at RT ([6]; in Medium Chain Triglycerides, NF): 0.32% w/w | Paclitaxel Solubility at RT ([6]; in Mineral Oil, USP (heavy)): 0.3 ppm | Paclitaxel Solubility at RT ([6]; in Polyethylene Glycol 400, NF): 22.30% w/w | Paclitaxel Solubility at RT ([6]; in Propylene Carbonate): 4.74% w/w | Paclitaxel Solubility at RT ([6]; in Propylene Glycol, USP): 0.88% w/w | Paclitaxel Solubility at RT ([6]; in Purified Water, USP): <0.05 ppm | Paclitaxel Solubility at RT ([6]; in Purified Water, USP, listed as paclitaxel): less than 0.05 ppm | Paclitaxel Solubility at RT ([6]; in Super Refined Oleic Acid, NF): 0.041% w/w | Paclitaxel Solubility at RT ([6]; in Super Refined Oleyl Alcohol, NF): 0.38% w/w
